Literature values in publication PMC2930141 (Biochimica et biophysica acta, 2010).

Legend:
[1] = aqueous
[2] = molecular target: human carbonic anhydrase I (hCA I) (Homo sapiens, UniProt P00915)
hCA I = conditions: bound to hCA I

Sequence of human carbonic anhydrase I (hCA I) (P00915 whole entry): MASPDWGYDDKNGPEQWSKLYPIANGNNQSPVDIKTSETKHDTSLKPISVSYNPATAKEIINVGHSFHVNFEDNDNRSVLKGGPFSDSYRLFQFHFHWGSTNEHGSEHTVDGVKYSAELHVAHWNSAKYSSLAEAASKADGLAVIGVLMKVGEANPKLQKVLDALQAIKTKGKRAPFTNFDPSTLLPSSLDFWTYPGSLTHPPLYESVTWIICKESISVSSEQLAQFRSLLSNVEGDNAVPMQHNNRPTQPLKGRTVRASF

Row | SMILES | pKa of sulfonamide group [1] | emission maximum of the enzyme-bound fluorophore [2] | pKa from pH dependent binding affinity (hCA I) | pKa from pH dependent binding affinity (hCA II)
1 | NS(=O)(=O)c1ccccc1 [benzenesulfonamide] | 9.79 | – | – | –
2 | CN(C)c1cccc2c(S(N)(=O)=O)cccc12 [dansylamide, 5-dimethylamino-1-naphthalene sulfonamide] | – | 458 nm | 6.3 | 6.4
